Common to all, as to test: Test B flooded paddy test
What all share (type): in vivo

Assay [1] concerns barnyardgrass (Echinochloa crus-galli). To be noted: Echinochloa crus-galli, 250 g ai/ha, Flood, read-out: Barnyardgrass plant response rating. The method in brief: (§1)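 Evaluation by eye, against controls, occurred 13–15 d post-treatment in a greenhouse, using a 0 (no effect) to 100 (complete control) scale. Application was into the paddy water, 3 cm deep over the soil, on 2-leaf plants.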

The subject of assay [2] is ducksalad (Heteranthera limosa). Conditions: Heteranthera limosa, 250 g ai/ha, Flood, read-out: Ducksalad plant response rating. Summed up: as §1
The subject of assay [3] is rice (Oryra sativa). Conditions: Oryza sativa, 250 g ai/ha, Flood, read-out: Rice plant response rating. Summed up: as §1
The subject of assay [4] is sedge, umbrella (small-flower umbrella sedge, Cyperus difformis). To be noted: Cyperus difformis, 250 g ai/ha, Flood, read-out: Sedge, Umbrella plant response rating. The method in brief:
as §1

Setting [5] is: 0 to 100 scale where 0 is no effect and 100 is complete control.
Where [6] appears, read: scale of 0 to 100 where 0 is no effect and 100 is complete control.

SMILES strings stand for the structures. Where two headings read alike, the source gives them in different places.

As for `O=C(Nc1ccccc1F)[C@H]1C(=S)NC[C@@H]1c1ccc(C(F)(F)F)cc1` (racemic) [Compound 1047], the pest or weed control at 250 g/ha in assay [1] (setting [5]), in assay [2] (setting [5]), in assay [3] (setting [5]) and in assay [4] (setting [5]) was 0% throughout.

With `Cc1ccc([C@H]2CNC(=O)[C@]2(Br)C(=O)Nc2cccc(F)c2F)cc1F` (racemic) [Compound 1073], the pest or weed control at 250 g/ha in assay [1] (setting [5]) was found to be 55%; in assay [2] (setting [5]), 100%; in assay [3] (setting [5]), 15%; in assay [4] (setting [5]), 0%.

On to `C/C=C/N1C[C@@H](c2cccc(C(F)(F)F)c2)[C@H](C(=O)Nc2ccccc2F)C1=O` (racemic) [Compound 1094], for which the pest or weed control at 250 g/ha in assay [1] (setting [5]) amounted to 45%; in assay [2] (setting [5]), 0%; in assay [3] (setting [5]), 0%; in assay [4] (setting [5]) it was 0%.

As to `CN1C[C@H](c2ccc(C(F)(F)F)cc2)[C@@](F)(C(=O)Nc2cccc(F)c2F)C1=O` (racemic) [Compound 1151], the pest or weed control at 250 g/ha in assay [1] (setting [5]), in assay [2] (setting [5]), in assay [3] (setting [5]) and in assay [4] (setting [5]) was 0% each time.

`CC(C)c1cccc([C@H]2CN(C)C(=O)[C@@H]2C(=O)Nc2ccccc2S(C)(=O)=O)c1` [Compound 820]: the pest or weed control at 250 g/ha was 60% in assay [1] (setting [6]), 75% in assay [2] (setting [6]), 0% in assay [3] (setting [6]) and 0% in assay [4] (setting [6]).

Turning to `CC(C)c1cccc([C@H]2CN(C)C(=O)[C@@H]2C(=O)Nc2ccc(F)cc2F)c1` [Compound 821], the pest or weed control at 250 g/ha in assay [1] (setting [6]) was 60%; in assay [2] (setting [6]) it was 80%; in assay [3] (setting [6]) it was 0%; in assay [4] (setting [6]), 0%.

With `CN1C[C@H](c2cccc(F)c2)[C@@H](C(=O)Nc2ccccc2F)C1=O` [Compound 822], the pest or weed control at 250 g/ha in assay [1] (setting [6]) came out at 75%; in assay [2] (setting [6]) it was 85%; in assay [3] (setting [6]) it was 0%; in assay [4] (setting [6]), 0%.

Take `Cc1c(F)cccc1NC(=O)[C@H]1C(=O)NC[C@@H]1c1cccc(C(F)(F)F)c1` [Compound 826]: the pest or weed control at 250 g/ha came out at 65% in assay [1] (setting [6]), 100% in assay [2] (setting [6]), 0% in assay [3] (setting [6]) and 0% in assay [4] (setting [6]).

`Cc1cc(F)ccc1NC(=O)[C@H]1C(=O)NC[C@@H]1c1cccc(C(F)(F)F)c1` [Compound 828]: the pest or weed control at 250 g/ha in assay [1] (setting [6]) is 0%; in assay [2] (setting [6]), 30%; in assay [3] (setting [6]), 0%; in assay [4] (setting [6]), 0%.

Regarding `Cc1c(F)ccc([C@H]2CN(C)C(=O)[C@@H]2C(=O)Nc2ccccc2F)c1F` [Compound 833], the pest or weed control at 250 g/ha in assay [1] (setting [6]) was 45%; in assay [2] (setting [6]) it was 85%; in assay [3] (setting [6]) it was 0%; in assay [4] (setting [6]) it was 0%.

Regarding `Cc1c(F)ccc([C@H]2CN(C)C(=O)[C@@H]2C(=O)Nc2ccc(F)c(F)c2F)c1F` [Compound 836], the pest or weed control at 250 g/ha in assay [1] (setting [6]) stood at 65%; in assay [2] (setting [6]) it was 95%; in assay [3] (setting [6]) it was 0%; in assay [4] (setting [6]), 0%.

For `O=C1NC[C@H](c2cc(F)c(C(F)(F)F)c(F)c2)[C@H]1C(=O)Nc1ccc(F)cc1F` [Compound 840], the pest or weed control at 250 g/ha in assay [1] (setting [6]) amounted to 0%; in assay [2] (setting [6]), 80%; in assay [3] (setting [6]) it was 0%; in assay [4] (setting [6]), 0%.

On to `Cc1c(F)ccc([C@H]2CN(C)C(=O)[C@@H]2C(=O)Nc2ccccc2C(F)(F)F)c1F` [Compound 841], for which the pest or weed control at 250 g/ha was determined as 40% in assay [1] (setting [6]), 80% in assay [2] (setting [6]), 0% in assay [3] (setting [6]) and 0% in assay [4] (setting [6]).

For `Cc1c(F)ccc([C@H]2CN(C)C(=O)[C@@H]2C(=O)Nc2ccccc2S(C)(=O)=O)c1F` [Compound 842], the pest or weed control at 250 g/ha in assay [1] (setting [6]) worked out at 65%; in assay [2] (setting [6]), 100%; in assay [3] (setting [6]), 0%; in assay [4] (setting [6]), 0%.

As for `CC(C)(C)c1ccc([C@H]2CNC(=O)[C@@H]2C(=O)Nc2cccc(F)c2F)cc1` [Compound 847], the pest or weed control at 250 g/ha in assay [1] (setting [6]) was determined as 0%; in assay [2] (setting [6]) it was 90%; in assay [3] (setting [6]), 0%; in assay [4] (setting [6]) it was 0%.

Regarding `COc1cc([C@H]2CN(C)C(=O)[C@@H]2C(=O)Nc2ccccc2SC)cc(C(F)(F)F)c1` [Compound 857], the pest or weed control at 250 g/ha in assay [1] (setting [6]) was 60%; in assay [2] (setting [6]) it was 80%; in assay [3] (setting [6]), 0%; in assay [4] (setting [6]), 80%.

Consider `COc1cc(C(F)(F)F)ccc1[C@H]1CN(C)C(=O)[C@@H]1C(=O)Nc1ccccc1F` [Compound 858], for which the pest or weed control at 250 g/ha was found to be 45% in assay [1] (setting [6]), 100% in assay [2] (setting [6]), 0% in assay [3] (setting [6]) and 0% in assay [4] (setting [6]).

With `CSc1ccccc1NC(=O)[C@H]1C(=O)N(C)C[C@@H]1c1cccc(OC(F)(F)C(F)F)c1` [Compound 862], the pest or weed control at 250 g/ha in assay [1] (setting [6]) turned out to be 0%; in assay [2] (setting [6]), 90%; in assay [3] (setting [6]) it was 0%; in assay [4] (setting [6]), 0%.

Turning to `Cc1c(F)cccc1NC(=O)[C@H]1C(=O)N(C)C[C@@H]1c1cc(F)c(F)c(F)c1` [Compound 867], the pest or weed control at 250 g/ha was 65% in assay [1] (setting [6]), 100% in assay [2] (setting [6]), 30% in assay [3] (setting [6]) and 30% in assay [4] (setting [6]).

With `CN1C[C@H](c2cc(F)cc(F)c2)[C@@H](C(=O)Nc2ncc(C(F)(F)F)cc2F)C1=O` [Compound 868], the pest or weed control at 250 g/ha in assay [1] (setting [6]), in assay [2] (setting [6]), in assay [3] (setting [6]) and in assay [4] (setting [6]) was 0% in each case.

Turning to `CN1C[C@H](c2cc(F)cc(F)c2)[C@@H](C(=O)Nc2ccccc2[S@@+](C)[O-])C1=O` [Compound 872], the pest or weed control at 250 g/ha came to 0% in assay [1] (setting [6]), 85% in assay [2] (setting [6]), 0% in assay [3] (setting [6]) and 40% in assay [4] (setting [6]).

Take `CN1C[C@H](c2cccc(COC(F)F)c2)[C@@H](C(=O)Nc2ccccc2S(C)(=O)=O)C1=O` [Compound 877]: the pest or weed control at 250 g/ha in assay [1] (setting [6]) was 55%; in assay [2] (setting [6]), 100%; in assay [3] (setting [6]), 0%; in assay [4] (setting [6]) it was 0%.

With `COc1c(F)ccc([C@H]2CNC(=O)[C@@H]2C(=O)Nc2ccccc2F)c1Cl` [Compound 881], the pest or weed control at 250 g/ha amounted to 45% in assay [1] (setting [6]), 100% in assay [2] (setting [6]), 15% in assay [3] (setting [6]) and 0% in assay [4] (setting [6]).

With `COc1c(F)ccc([C@H]2CNC(=O)[C@@H]2C(=O)Nc2cccc(F)c2F)c1Cl` [Compound 882], the pest or weed control at 250 g/ha in assay [1] (setting [6]) was 45%; in assay [2] (setting [6]) it was 100%; in assay [3] (setting [6]) it was 0%; in assay [4] (setting [6]), 0%.

Regarding `O=C1NC[C@H](c2ccc3c(c2)CCCO3)[C@H]1C(=O)Nc1ccccc1F` [Compound 885], the pest or weed control at 250 g/ha was found to be 0% in assay [1] (setting [6]), 60% in assay [2] (setting [6]), 0% in assay [3] (setting [6]) and 0% in assay [4] (setting [6]).

Turning to `COc1c(F)ccc([C@H]2CN(C)C(=O)[C@@H]2C(=O)Nc2cccc(F)c2F)c1Cl` [Compound 893], the pest or weed control at 250 g/ha in assay [1] (setting [6]) amounted to 90%; in assay [2] (setting [6]), 90%; in assay [3] (setting [6]), 10%; in assay [4] (setting [6]), 0%.

Turning to `COc1c(F)ccc([C@H]2CN(C)C(=O)[C@@H]2C(=O)Nc2ccc(F)cc2F)c1Cl` [Compound 894], the pest or weed control at 250 g/ha in assay [1] (setting [6]) was found to be 70%; in assay [2] (setting [6]), 100%; in assay [3] (setting [6]), 0%; in assay [4] (setting [6]), 0%.

On to `CN1C[C@H](c2cc(F)c(C(F)(F)F)c(F)c2)[C@@H](C(=O)Nc2cccc(F)c2F)C1=O` [Compound 898], for which the pest or weed control at 250 g/ha in assay [1] (setting [6]) worked out at 55%; in assay [2] (setting [6]) it was 70%; in assay [3] (setting [6]), 0%; in assay [4] (setting [6]) it was 0%.

`O=C1NC[C@H](c2ccc3c(c2)CCO3)[C@H]1C(=O)Nc1ccc(F)cc1F` [Compound 902]: the pest or weed control at 250 g/ha turned out to be 0% in assay [1] (setting [6]), 75% in assay [2] (setting [6]), 0% in assay [3] (setting [6]) and 0% in assay [4] (setting [6]).

The values are drawn from US12077503B2, “Substituted cyclic amides and their use as herbicides” (FMC CORPORATION, priority 2015, dated 2024).
